From BindingDB's records for patent US11787780 (Corcept Therapeutics, 2023)
pIC50: −log10 of the molar value.

Biological target: T1, Glucocorticoid receptor (Homo sapiens, UniProt P04150)
T1 sequence (P04150 whole entry): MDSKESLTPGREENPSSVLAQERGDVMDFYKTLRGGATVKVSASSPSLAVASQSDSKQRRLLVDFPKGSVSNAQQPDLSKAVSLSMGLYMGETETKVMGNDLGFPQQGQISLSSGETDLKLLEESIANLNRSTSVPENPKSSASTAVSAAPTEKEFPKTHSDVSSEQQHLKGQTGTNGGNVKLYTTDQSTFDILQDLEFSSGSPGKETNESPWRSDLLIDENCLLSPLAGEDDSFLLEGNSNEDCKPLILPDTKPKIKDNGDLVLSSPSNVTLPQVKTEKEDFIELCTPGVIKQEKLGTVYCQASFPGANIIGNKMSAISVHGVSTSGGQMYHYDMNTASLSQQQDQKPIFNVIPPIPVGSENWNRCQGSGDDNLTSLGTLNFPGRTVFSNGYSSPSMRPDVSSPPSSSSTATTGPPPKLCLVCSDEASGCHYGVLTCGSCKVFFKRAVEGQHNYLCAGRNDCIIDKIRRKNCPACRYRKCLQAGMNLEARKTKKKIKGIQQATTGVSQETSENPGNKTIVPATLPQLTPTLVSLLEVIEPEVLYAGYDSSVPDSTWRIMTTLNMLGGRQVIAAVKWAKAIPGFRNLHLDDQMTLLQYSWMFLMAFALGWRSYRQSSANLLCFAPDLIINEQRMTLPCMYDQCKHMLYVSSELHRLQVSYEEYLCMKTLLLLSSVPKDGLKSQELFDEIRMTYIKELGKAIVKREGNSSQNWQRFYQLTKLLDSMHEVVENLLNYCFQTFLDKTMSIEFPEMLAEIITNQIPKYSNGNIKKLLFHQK
Assay: GR Binding Assay
Procedure: Binding of test compounds to the glucocorticoid receptor (GR) is determined using a fluorescence polarisation (FP) assay utilising a recombinant ligand binding domain (LBD) of GR. The test compounds are assessed by their ability to displace a fluorescently tagged ligand and detection of the resulting decrease in fluorescence polarisation.

Row | SMILES | pIC50
1 | CCCn1cc(S(=O)(=O)N2CCC(Cc3ccccn3)(c3cc4cnn(-c5ccc(F)cc5)c4cc3C)C2)cn1 (stereo not drawn) [US11787780, Example 152] | 7.89
2 | Cc1cc2c(cnn2-c2ccc(=O)n(C)c2)cc1C1(Cc2ccccc2)CCN(S(=O)(=O)c2cnn(C(C)C)n2)C1 (stereo not drawn) [US11787780, Example 320] | 7.92
3 | Cc1cc2c(cnn2-c2ccc(F)cc2)cc1C1(Cc2ccccc2)CC(O)N(Cc2ccccc2)C1=O (stereo not drawn) [US11787780, Example 336] | 6.74
